Measured values: article PMC9134006 (RSC Advances, 2021)
pIC50: −log10 of the molar value.

How the values were obtained:
hAChE (human AChE) = hAChE (human AChE) (Homo sapiens, UniProt P22303); experiment: Inhibition of hAChE; assay type: biochemical; settings: for remaining activity at 10 µM: read-out: hAChE RA (residual activity) at 10 μM; for remaining activity at 100 µM: read-out: hAChE RA (residual activity) at 100 μM
hBChE (human BChE) = hBChE (human BChE) (Homo sapiens, UniProt P06276); experiment: Inhibition of hBChE; assay type: biochemical; settings: for remaining activity at 10 µM: read-out: hBChE RA (residual activity) at 10 μM; for remaining activity at 100 µM: read-out: hBChE RA (residual activity) at 100 μM
hMAO-B (human MAO-B) = molecular target: T1, hMAO-B (human MAO-B) (Homo sapiens, UniProt P27338); experiment: Inhibition of hMAO-B; assay type: biochemical; settings: for remaining activity at 10 µM: read-out: hMAO-B RA (residual activity) at 10 μM; for remaining activity at 100 µM: read-out: hMAO-B RA (residual activity) at 100 μM; for inhibition of hMAO-B (in words): versus hAChE, hBChE, hMAO-A
T1 sequence (P27338 1-520): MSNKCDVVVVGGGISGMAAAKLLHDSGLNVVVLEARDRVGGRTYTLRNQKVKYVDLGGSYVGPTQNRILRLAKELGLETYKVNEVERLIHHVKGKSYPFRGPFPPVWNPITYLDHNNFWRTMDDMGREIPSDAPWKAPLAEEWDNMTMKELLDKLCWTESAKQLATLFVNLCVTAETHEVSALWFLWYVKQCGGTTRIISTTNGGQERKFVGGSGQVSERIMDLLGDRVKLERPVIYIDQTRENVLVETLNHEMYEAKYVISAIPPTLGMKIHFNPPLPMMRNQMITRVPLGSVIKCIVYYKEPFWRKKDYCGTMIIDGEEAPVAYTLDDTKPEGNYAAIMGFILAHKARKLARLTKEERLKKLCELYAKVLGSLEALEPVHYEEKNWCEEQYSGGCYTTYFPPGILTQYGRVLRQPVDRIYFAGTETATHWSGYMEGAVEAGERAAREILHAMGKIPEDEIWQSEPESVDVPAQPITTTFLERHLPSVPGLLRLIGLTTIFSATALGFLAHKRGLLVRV

hMAO-A (human MAO-A) = molecular target: T2, hMAO-A (human MAO-A) (Homo sapiens, UniProt P21397); experiment: Inhibition of hMAO-A; settings: for remaining activity at 10 µM: read-out: hMAO-A RA (residual activity) at 10 μM; for remaining activity at 100 µM: read-out: hMAO-A RA (residual activity) at 100 μM
T2 sequence (P21397 1-527): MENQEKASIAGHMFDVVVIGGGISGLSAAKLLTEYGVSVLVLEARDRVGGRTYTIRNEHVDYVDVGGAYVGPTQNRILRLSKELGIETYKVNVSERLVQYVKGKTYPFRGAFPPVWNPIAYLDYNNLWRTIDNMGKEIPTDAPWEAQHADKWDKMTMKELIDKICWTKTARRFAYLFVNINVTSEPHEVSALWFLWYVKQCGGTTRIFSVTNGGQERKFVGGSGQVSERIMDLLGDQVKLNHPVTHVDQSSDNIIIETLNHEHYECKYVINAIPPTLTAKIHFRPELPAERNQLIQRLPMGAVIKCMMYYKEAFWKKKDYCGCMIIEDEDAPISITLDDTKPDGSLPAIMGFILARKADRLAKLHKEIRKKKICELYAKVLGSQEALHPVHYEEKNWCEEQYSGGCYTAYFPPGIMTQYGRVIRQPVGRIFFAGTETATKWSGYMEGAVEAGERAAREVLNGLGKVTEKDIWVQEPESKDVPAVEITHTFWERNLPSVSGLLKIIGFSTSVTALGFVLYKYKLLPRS

[1] = ref 29b,37; cited from earlier work

hBChE (human BChE), sequence (P06276 29-602): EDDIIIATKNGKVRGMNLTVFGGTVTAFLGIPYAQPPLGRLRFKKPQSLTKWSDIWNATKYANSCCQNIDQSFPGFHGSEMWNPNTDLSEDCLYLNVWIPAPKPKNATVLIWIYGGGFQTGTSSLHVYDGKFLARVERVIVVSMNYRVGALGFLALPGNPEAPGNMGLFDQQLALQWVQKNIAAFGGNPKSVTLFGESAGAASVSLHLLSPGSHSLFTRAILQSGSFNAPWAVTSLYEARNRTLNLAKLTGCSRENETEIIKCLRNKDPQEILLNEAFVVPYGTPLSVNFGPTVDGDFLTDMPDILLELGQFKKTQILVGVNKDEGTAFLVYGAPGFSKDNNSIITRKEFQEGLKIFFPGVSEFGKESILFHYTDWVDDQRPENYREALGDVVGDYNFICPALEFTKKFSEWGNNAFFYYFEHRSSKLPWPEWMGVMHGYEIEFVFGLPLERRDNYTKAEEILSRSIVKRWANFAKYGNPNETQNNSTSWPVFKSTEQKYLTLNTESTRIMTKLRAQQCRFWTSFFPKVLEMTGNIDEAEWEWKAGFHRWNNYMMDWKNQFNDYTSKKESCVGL
hAChE (human AChE), sequence (P22303 32-614): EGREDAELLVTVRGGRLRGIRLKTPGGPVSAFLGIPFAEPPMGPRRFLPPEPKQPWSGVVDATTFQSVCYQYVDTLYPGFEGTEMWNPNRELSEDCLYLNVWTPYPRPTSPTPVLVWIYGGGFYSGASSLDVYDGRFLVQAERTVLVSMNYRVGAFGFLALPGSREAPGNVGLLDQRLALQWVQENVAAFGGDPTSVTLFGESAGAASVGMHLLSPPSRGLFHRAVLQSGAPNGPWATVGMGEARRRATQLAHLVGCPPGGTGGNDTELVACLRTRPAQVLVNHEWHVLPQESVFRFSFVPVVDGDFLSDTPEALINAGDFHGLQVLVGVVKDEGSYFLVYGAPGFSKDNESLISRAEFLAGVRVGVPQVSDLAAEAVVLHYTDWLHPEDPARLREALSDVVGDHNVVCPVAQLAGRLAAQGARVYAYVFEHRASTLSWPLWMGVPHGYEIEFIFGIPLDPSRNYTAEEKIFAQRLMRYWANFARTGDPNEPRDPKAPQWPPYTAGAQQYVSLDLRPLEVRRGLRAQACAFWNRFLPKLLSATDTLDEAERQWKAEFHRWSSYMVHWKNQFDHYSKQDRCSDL

| Compound | remaining activity at 10 µM (hAChE (human AChE)) [%] | remaining activity at 100 µM (hAChE (human AChE)) [%] | remaining activity at 10 µM (hBChE (human BChE)) [%] | remaining activity at 100 µM (hBChE (human BChE)) [%] | pIC50 (hMAO-B (human MAO-B)) | remaining activity at 10 µM (hMAO-B (human MAO-B)) [%] | remaining activity at 100 µM (hMAO-B (human MAO-B)) [%] | inhibition of hMAO-B (in words) (hMAO-B (human MAO-B)) | remaining activity at 10 µM (hMAO-A (human MAO-A)) [%] | remaining activity at 100 µM (hMAO-A (human MAO-A)) [%] | anti-inflammatory activity [1] [%] |
| --- | --- | --- | --- | --- | --- | --- | --- | --- | --- | --- | --- |
| COc1ccc(-c2cnn3c(C(F)(F)F)cc(=O)[nH]c23)cc1 [Compound 5a, 3-(4-Methoxyphenyl)-7-(trifluoromethyl)pyrazolo[1,5-a]pyrimidin-5(4H)-one] | 93 | 86 | 90 | 103 | 4.46 | 73 | 26 | selectively inhibit hMAO-B in the micromolar range | 95 | 99 |  |
| COc1cccc(-c2cnn3c(C(F)(F)F)cc(=O)[nH]c23)c1 [Compound 5f, 3-(3-Methoxyphenyl)-7-(trifluoromethyl)pyrazolo[1,5-a]pyrimidin-5(4H)-one] | 91 | 88 | 97 | 95 | 4.00 | 80 | 40 | selectively inhibit hMAO-B in the micromolar range | 92 | 97 |  |
| O=c1cc(C(F)(F)F)n2ncc(-c3ccc4c(c3)OCCO4)c2[nH]1 [Compound 5h, 3-(2,3-Dihydrobenzo[b][1,4]dioxin-6-yl)-7-(trifluoromethyl)pyrazolo[1,5-a]pyrimidin-5(4H)-one] | 91 | 86 | 94 | 95 | 5.27 | 36 | 8 | selectively inhibit hMAO-B in the micromolar range | 110 | 95 |  |
| CC(=O)c1ccc(-c2cnn3c(C(F)(F)F)cc(=O)[nH]c23)cc1 [Compound 5i, 3-(4-Acetylphenyl)-7-(trifluoromethyl)pyrazolo[1,5-a]pyrimidin-5(4H)-one] | 90 | 91 | 91 | 99 | 4.58 | 75 | 21 | selectively inhibit hMAO-B in the micromolar range | 100 | 98 |  |
| FC(F)(F)c1cc(-c2ccc(Br)cc2)nc2c(-c3ccccc3)cnn12 [Compound 11h, 5-(4-Bromophenyl)-3-phenyl-7-(trifluoromethyl)pyrazolo[1,5-a]pyrimidine] |  |  |  |  |  |  |  |  |  |  | 83.4 |
| COc1ccc2c(c1)c(CC(=O)O)c(C)n2C(=O)c1ccc(Cl)cc1 [Indomethacin, reference compound] |  |  |  |  |  |  |  |  |  |  | 84.2 |
